Data: patent US20230240297A1, “SELECTIVE HERBICIDES BASED ON SUBSTITUTED ISOXAZOLIN CARBOXAMIDES AND CYPROSULFAMIDE” (Bayer Aktiengesellschaft, priority 2020, published 2023)

Experiments:
ZEAMA Abraxas = assay: Tank-mix; post-emergence, crop damage with and without safener; assay type: in vivo, maize; details: for HER effect + SAF / HER effect: Final assessment; for HER effect: no safener
Protocol: Seeds of crops (spring wheat, TRZAS; spring barley, HORVS; maize, ZEAMA) were placed in sandy loam soil in peat pots, covered with soil and cultivated in a greenhouse under good growth conditions. Two to three weeks after sowing, the test plants were treated at the 1 to 3-leaf stage. The herbicide/safener active compound combinations according to the invention, formulated as wettable powders or emulsion concentrates, and, in parallel tests, the correspondingly formulated individual active compounds were sprayed onto the green parts of the plants in various dosages using an amount of water of 300 1/ha (converted).
The pots were returned under good growing conditions in a glasshouse and a visual assessment of herbicidal effects was made at intervals from 1 to 3 weeks after herbicide application (DAT = days after treatment). Assessment was on a percentage basis in comparison with untreated control plants (0% = no injury, 100% = complete kill).

ZEAMA Sileno = assay: Seed treatment with safener; post-emergence herbicide application; assay type: in vivo, maize; design: Reduction [Difference]: scale not given here; details: Final assessment; for Reduction [%] / Reduction [Difference]: Cyprosulfamide 0.5 g a.i./kg seed; for Reduction [Difference]: damage without safener - damage with safener; for HER effect + SAF (crop damage with safener): Cyprosulfamide seed treatment 0.5 g a.i./kg seed; for HER effect (crop damage, herbicide without safener): no safener
Protocol: For the safener seed treatment, sufficient seeds of the respective crops (spring wheat, TRZAS; spring barley, HORVS; maize, ZEAMA) were weighed into screw top glass bottles approximately twice the volume of the seeds.
The specified safeners, formulated as wettable powder (WP) were weighed out so that the specified rates (g a.i./kg seed) would be obtained, dissolved in water (1 ml water per 10 g of seeds), and added to the seeds to produce a slurry.
The bottles were capped and then placed in an overhead shaker (set at medium speed for ca. 60 minutes) so that the seeds were evenly coated with the slurry. The bottles were uncapped and the seeds were either placed on paper and dried for an interval of 3-4 hours prior to sowing, or directly sown. Seeds were placed in sandy loam soil in pots of a diameter of 7-8 cm, covered with soil, and cultivated in a greenhouse under good growth conditions.
Post-emergence application of the specified herbicides was done when the plants had reached growth stage BBCH11-13, on two sets of plants:
a) seed treatment with safener, as described above b) no safener treatment
The herbicides were formulated as WP and sprayed onto the green parts of the plants as an aqueous suspension at an equivalent water application rate of 300 1/ha, with addition of wetting agent and adjuvants (e.g. Mero, 1.5 1/ha; ammonium sulphate, 2 kg/ha)
After application, the test plants were kept in the greenhouse under good growth conditions.
Values in the table below are mean values of at least 2 replicates.

[1] = HER 8 g a.i./ha, cyprosulfamide 50 g a.i./ha
[2] = HER 32 g a.i./ha, cyprosulfamide 100 g a.i./ha
[3] = HER dose 8 g a.i./ha + cyprosulfamide 50 g a.i./ha tank-mix
[4] = HER dose 32 g a.i./ha + cyprosulfamide 100 g a.i./ha tank-mix

C=CC1(C(=O)NC2CC=C(C(=O)OC)C2)CC(c2cc(F)cc(F)c2)=NO1 (mixture of isomers) [Example 1.60]
Reduction [%] (ZEAMA Abraxas; [1]): 69%
Reduction [Difference] (ZEAMA Abraxas; [1]): 38
Reduction [%] (ZEAMA Abraxas; [2]): 79%
Reduction [Difference] (ZEAMA Abraxas; [2]): 74
HER effect + SAF (ZEAMA Abraxas; [3]): 17%
HER effect (ZEAMA Abraxas; HER dose 8 g a.i./ha): 55%
HER effect + SAF (ZEAMA Abraxas; [4]): 20%
HER effect (ZEAMA Abraxas; HER dose 32 g a.i./ha): 94%
Reduction [%] (ZEAMA Sileno; HER dose 8 g a.i./ha): 94%
Reduction [Difference] (ZEAMA Sileno; HER dose 8 g a.i./ha): 50
HER effect + SAF (crop damage with safener) (ZEAMA Sileno; HER dose 8 g a.i./ha): 3%
HER effect (crop damage, herbicide without safener) (ZEAMA Sileno; HER dose 8 g a.i./ha): 53%
Reduction [%] (ZEAMA Sileno; HER dose 32 g a.i./ha): 88%
Reduction [Difference] (ZEAMA Sileno; HER dose 32 g a.i./ha): 57
HER effect + SAF (crop damage with safener) (ZEAMA Sileno; HER dose 32 g a.i./ha): 8%
HER effect (crop damage, herbicide without safener) (ZEAMA Sileno; HER dose 32 g a.i./ha): 65%

C=CC1(C(=O)NC2COC(C(=O)OC)C2)CC(c2cc(C)cc(F)c2)=NO1 (mixture of isomers) [Example 1.71]
Reduction [%] (ZEAMA Abraxas; [1]): 71%
Reduction [Difference] (ZEAMA Abraxas; [1]): 41
Reduction [%] (ZEAMA Abraxas; [2]): 67%
Reduction [Difference] (ZEAMA Abraxas; [2]): 61
HER effect + SAF (ZEAMA Abraxas; [3]): 17%
HER effect (ZEAMA Abraxas; HER dose 8 g a.i./ha): 58%
HER effect + SAF (ZEAMA Abraxas; [4]): 30%
HER effect (ZEAMA Abraxas; HER dose 32 g a.i./ha): 91%
Reduction [%] (ZEAMA Sileno; HER dose 32 g a.i./ha): 91%
Reduction [Difference] (ZEAMA Sileno; HER dose 32 g a.i./ha): 29
HER effect + SAF (crop damage with safener) (ZEAMA Sileno; HER dose 32 g a.i./ha): 3%
HER effect (crop damage, herbicide without safener) (ZEAMA Sileno; HER dose 32 g a.i./ha): 32%

CC1(C(=O)NC2COC(C(=O)OCc3cccc(F)c3)C2)CC(c2cc(F)cc(F)c2)=NO1 (mixture of isomers) [Example 1.76]
Reduction [%] (ZEAMA Abraxas; [1]): 74%
Reduction [Difference] (ZEAMA Abraxas; [1]): 67
Reduction [%] (ZEAMA Abraxas; [2]): 26%
Reduction [Difference] (ZEAMA Abraxas; [2]): 25
HER effect + SAF (ZEAMA Abraxas; [3]): 23%
HER effect (ZEAMA Abraxas; HER dose 8 g a.i./ha): 90%
HER effect + SAF (ZEAMA Abraxas; [4]): 70%
HER effect (ZEAMA Abraxas; HER dose 32 g a.i./ha): 95%
Reduction [%] (ZEAMA Sileno; HER dose 8 g a.i./ha): 100%
Reduction [Difference] (ZEAMA Sileno; HER dose 8 g a.i./ha): 22
HER effect + SAF (crop damage with safener) (ZEAMA Sileno; HER dose 8 g a.i./ha): 0%
HER effect (crop damage, herbicide without safener) (ZEAMA Sileno; HER dose 8 g a.i./ha): 22%
Reduction [%] (ZEAMA Sileno; HER dose 32 g a.i./ha): 74%
Reduction [Difference] (ZEAMA Sileno; HER dose 32 g a.i./ha): 20
HER effect + SAF (crop damage with safener) (ZEAMA Sileno; HER dose 32 g a.i./ha): 7%
HER effect (crop damage, herbicide without safener) (ZEAMA Sileno; HER dose 32 g a.i./ha): 27%

C=CC1(C(=O)NC2COC(C(=O)OCc3ccc(OC)cc3)C2)CC(c2cc(C)cc(F)c2)=NO1 (mixture of isomers) [Example 1.86]
Reduction [%] (ZEAMA Abraxas; [1]): 84%
Reduction [Difference] (ZEAMA Abraxas; [1]): 27
HER effect + SAF (ZEAMA Abraxas; [3]): 5%
HER effect (ZEAMA Abraxas; HER dose 8 g a.i./ha): 32%
